The results in this text go back to patent publication US10202361B2, “Pyridazinones as herbicides” (E I DU PONT DE NEMOURS AND COMPANY, priority 2014, dated 2019).

Test in all cases: Test A pre-/postemergence greenhouse herbicide test
Common to all, as to assay type: in vivo

Assay [1] deals with crabgrass, Large (large crabgrass, Digitaria sanguinalis). The following applies: Digitaria sanguinalis, 240 h, 0 to 100 scale (0 no effect, 100 complete control), approx. 10 d, read-out: Plant response rating, Crabgrass, Large; for pest or weed control at 125 g/ha: 125 g ai/ha; for pest or weed control at 500 g/ha: 500 g ai/ha. The essentials: (§1)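 Greenhouse pre- and postemergence treatment in loam/sand soil, test chemicals in non-phytotoxic solvent with surfactant; postemergence plants 2–10 cm, one- to two-leaf stage. Visual injury rated after approximately 10 d versus untreated controls, 0 (no effect) to 100 (complete control).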

In assay [2] the test system is pigweed (Amaranthus retroflexus). The following applies: Amaranthus retroflexus, 240 h, 0 to 100 scale (0 no effect, 100 complete control), approx. 10 d, read-out: Plant response rating, Pigweed; for pest or weed control at 125 g/ha: 125 g ai/ha; for pest or weed control at 500 g/ha: 500 g ai/ha. The essentials: as §1
Assay [3] has as its system wheat (Triticum aestivum). As to conditions: Triticum aestivum, 240 h, 0 to 100 scale (0 no effect, 100 complete control), approx. 10 d, read-out: Plant response rating, Wheat; for plant injury at 125 g/ha: 125 g ai/ha; for plant injury at 500 g/ha: 500 g ai/ha. In a few lines:
as §1

Like-named read-outs stand apart in the source and are kept apart here.

Take `Cc1cc(=O)n(-c2ccc(F)cc2)nc1Cn1ccc(C(F)(F)F)n1` [Compound 3, 2-(4-fluorophenyl)-5-methyl-6-[[3-(trifluoromethyl)-1H-pyrazol-1-yl]methyl]-3(2H)-pyridazinone]: the pest or weed control at 125 g/ha in assay [1] (post-emergence, Postemergence) was 10%; in assay [1] (pre-emergence, Preemergence) it was 30%; in assay [2] (post-emergence, Postemergence), 60%; in assay [2] (pre-emergence, Preemergence), 20%. Also, the pest or weed control at 500 g/ha in assay [1] (post-emergence, Postemergence) was 30%; in assay [1] (pre-emergence, Preemergence), 90%; in assay [2] (post-emergence, Postemergence), 70%; in assay [2] (pre-emergence, Preemergence), 80%. For the same compound, the plant injury at 125 g/ha in assay [3] (post-emergence, Postemergence) was 0%; in assay [3] (pre-emergence, Preemergence), 0%. In addition, the plant injury at 500 g/ha in assay [3] (post-emergence, Postemergence) amounted to 0%; in assay [3] (pre-emergence, Preemergence) it was 0%.

Turning to `Cc1cc(=O)n(-c2ccc(C(F)(F)F)cc2)nc1Oc1ccnc(C(F)(F)F)c1` [Compound 5, 5-methyl-2-[4-(trifluoromethyl)phenyl]-6-[[2-(trifluoromethyl)-4-pyridinyl]oxy]-3(2H)-pyridazinone], the pest or weed control at 125 g/ha in assay [1] (post-emergence, Postemergence) stood at 50%; in assay [1] (pre-emergence, Preemergence) it was 100%; in assay [2] (post-emergence, Postemergence), 100%; in assay [2] (pre-emergence, Preemergence), 100%. In addition, the pest or weed control at 500 g/ha is 80% in assay [1] (post-emergence, Postemergence); 100% in assay [1] (pre-emergence, Preemergence); 100% in assay [2] (post-emergence, Postemergence); 100% in assay [2] (pre-emergence, Preemergence). Also, the plant injury at 125 g/ha in assay [3] (post-emergence, Postemergence) was 30%; in assay [3] (pre-emergence, Preemergence) it was 0%. Moreover, the plant injury at 500 g/ha was 40% in assay [3] (post-emergence, Postemergence) and 10% in assay [3] (pre-emergence, Preemergence).

With `CCOc1cc(=O)n(-c2ccc(F)cc2)nc1C(=O)c1ccnc(C(F)(F)F)c1` [Compound 22, 5-ethoxy-2-(4-fluorophenyl)-6-[[2-(trifluoromethyl)-4-pyridinyl]carbonyl]-3(2H)-pyridazinone], the pest or weed control at 125 g/ha is 60% in assay [1] (post-emergence, Postemergence); 100% in assay [1] (pre-emergence, Preemergence); 100% in assay [2] (post-emergence, Postemergence); 100% in assay [2] (pre-emergence, Preemergence). The pest or weed control at 500 g/ha is 100% in assay [1] (post-emergence, Postemergence); 100% in assay [1] (pre-emergence, Preemergence); 100% in assay [2] (post-emergence, Postemergence); 100% in assay [2] (pre-emergence, Preemergence). In addition, the plant injury at 125 g/ha in assay [3] (post-emergence, Postemergence) came out at 60%; in assay [3] (pre-emergence, Preemergence), 10%. In addition, the plant injury at 500 g/ha in assay [3] (post-emergence, Postemergence) turned out to be 90%; in assay [3] (pre-emergence, Preemergence) it was 40%.
